Experimental data reported in patent US12590118B2, “Salt and crystal form of steroid derivative regulator” (Shanghai Hansoh Biomedical Co., Ltd., priority 2019, dated 2026).

Tests used:
[1] = Solid stability experiment (total impurities); type: physicochemical
Experimental: The physicochemical stability of candidate crystal forms I, II and III of the free base of Example 40 under influencing factors such as high temperature, high humidity and strong light was investigated, so as to provide a basis for the production and storage of the compound.
The related substance change of the free base was calculated by chromatographic peak area normalization method.

CD-1 mice = experiment: PTZ-induced epilepsy model in mice; type: in vivo; details: 3 mpk p.o., PTZ 120 mg/kg s.c., 30 min observation
Experimental: The PTZ-induced epilepsy model in CD-1 mice was established, and the antiepileptic effect of the compounds of Example 2, Example 40, Example 41 and Example 52 was evaluated using this model.
50 male CD-1 mice were purchased from Beijing Vital River Laboratory Animal Technology Co. Ltd. The test animals were adapted at the animal room in the third building of Shanghai ChemPartner Co., Ltd for 7 days before the experiment. The average body weight of the animals on the test day was 32.2±0.2 grams. Feeding environment: 5 animals/cage, room temperature 23±2° C., 12/12 hours of light and dark cycle, free access to food and water.
The mice were randomly grouped for the experiment on the test day.
Compounds of Example 2, Example 40, Example 41 and Example 52 (prepared by the applicant). The test compounds were stored in a refrigerator at 4° C.
4.2.3 Test Equipments • 1 ml sterile disposable syringe with needle (purchased from Zhejiang Kangdelai Medical Devices Co., Ltd.) • Pipette: Eppendorf Research Plus (100-1000 μL) • Vortex mixer: Kylin-Bell Vortex 5 • Ultrasonic instrument: JL-360 ultrasonic cleaner • Balance: METTLER TOLEDO XS204 precision balance • Balance: METTLER TOLEDO XS6002S electronic balance • Plexiglass box: 25 cm length*15 cm width*15 cm height with one opaque side wall, custom made by Suzhou Fengshi Laboratory Animal Equipment Co., Ltd • 3-channel timer: Oregon/Model NO. WB-388. 4.2.4 Test Animal Grouping • 1) Vehicle/PTZ: 0.5% CMC-Na+1% Tween-80 (10 ml/kg, p.o.), administered 0.5 hr before the PTZ administration; PTZ ([…], s.c.), administered before the experiment; • 2) 3 mg/kg of the compounds of Examples/PTZ: the compounds of Example 2, Example 40, Example 41 and Example 52 (3 mg/kg, 10 ml/kg, p.o.), administered 0.5 hr before the PTZ administration; PTZ ([…], s.c.), administered before the experiment. 4.3 Experimental Procedures 4.3.1 Solvent Formulation • 1) 0.5% CMC-Na+1% Tween-80 (administration volume: 10 mL/kg):
1 g of sodium carboxymethyl cellulose was precisely weighed and added to a 250 mL solvent bottle, then 150 mL of double-distilled water was added. The mixture was stirred at room temperature for 4 hours with a magnetic stirrer to obtain a uniform and clear solution. 2 mL of Tween-80 was slowly added, and the mixture was stirred at room temperature for 3 hours to obtain a uniform and clear solution. The solution was slowly transferred to a 200 mL volumetric flask, and double distilled water was added to the constant volume of 200 mL. The solution was transferred to a 250 mL solvent bottle, and stirred for 1 hour with a magnetic stirrer to obtain a uniform and clear solution. • 2) 30% hydroxypropyl-p-cyclodextrin:
248 mg of PTZ was precisely weighed and added to a 40 mL brown flask, then 20.667 mL of physiological saline was added. The mixture was mixed by vortex for 2 minutes, and treated by ultrasound at room temperature for 2 minutes to obtain a uniform and clear solution (concentration: 12 mg/mL). • 2) 0.3 mg/mL of the compounds of Example 5 or Example 23 (dose: 3 mg/kg; administration volume: 10 mL/kg): […]
4.4 Adaptation to the Environment
The mice were randomly grouped, marked and weighed; 10 mice per group. The test compound was administered orally at an administration volume of 10 mL/kg 30-60 minutes before the PTZ administration.
PTZ (120 mg/kg) was administrated subcutaneously before the experiment observation, and this time point was recorded as the observation start point; after the administration of PTZ, the animal was immediately placed in the observation box and observed for 30 minutes, and the followings were recorded: a) the incubation period of the first clonic seizure, b) the incubation period of the first generalized tonic seizure, c) the number of clonic seizures, d) the number of generalized tonic seizures, e) the time when the animal died.
All measurement data were expressed as Mean±SEM, and analysed with Prism 6.0 statistical software.

ICR mice = experiment: Forced swimming model in mice; type: in vivo; details: for Mean (immobility, %): floating time/240 s; for immobility time during the latter four minutes compared with that of the model group: forced swimming, ICR mice
In short: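 Male ICR mice (25-35 g), 12 per group, dosed intragastrically at brain Tmax with 10 mg/kg or 5 mg/kg p.o. in 0.5% CMC-Na + 1% Tween 80. Forced swim 0.5-1 h post-dose for 6 min in 25-26° C. water, 18 cm deep. Immobility over last 4 min, given as floating time percentage of 240 s.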

SMILES | Total impurities (%) ([1]; 50° C./75% RH Open, 5 d) | Total impurities (%) ([1]; 50° C./75% RH Open, 10 d) | Total impurities (%) ([1]; 60° C. Sealed, 5 d) | Total impurities (%) ([1]; 60° C. Sealed, 10 d) | Total impurities (%) ([1]; Initial sample, 0 d) | Total impurities (%) ([1]; Light 5k lux Sealed, 10 d) | Total impurities (%) ([1]; Light 5k lux Sealed, column printed 10 d) | Total impurities (%) ([1]; RT/90% RH Open, 5 d) | Total impurities (%) ([1]; RT/90% RH Open, column printed 5 d) | change of impurities (in words) ([1]; high temperature, high humidity and light for 10 days) | Incubation period of the clonic seizure (sec) Mean ± SEM (CD-1 mice) [s] | Incubation period of the generalized tonic seizure (sec) Mean (CD-1 mice) [s] | Mortality rate (%) (CD-1 mice) | Number of clonic seizures Mean (CD-1 mice) | Number of generalized tonic seizures Mean (CD-1 mice) | Time when the animal died (sec) Mean (CD-1 mice) [s] | Mean (immobility, %) (ICR mice; dose 10 mpk p.o.) [%] | immobility time during the latter four minutes compared with that of the model group (ICR mice) | Mean (immobility, s) (ICR mice; dose 10 mpk p.o., latter four minutes of 6 min swim) [s]
C[C@@H]1C[C@H](C(=O)Cn2ccc(C#N)n2)[C@@]2(C)CC[C@H]3[C@@H](CC[C@@H]4C[C@](C)(O)CC[C@@H]43)[C@H]12 [Crystal form I, 1-(2-((3R,5R,8R,9R,10S,13S,14S,15R,17S)-3-Hydroxy-3,13,15-trimethylhexadecahydro-1H-cyclopenta[a]phenanthren-17-yl)-2-oxoethyl)-1H-pyrazole-3-carbonitrile] | 0.56 | 0.59 | 0.55 | 0.56 | 0.59 | 0.56 | 0.57 | 0.56 | 0.56 | the impurities did not increase | – | – | – | – | – | – | – | – | –
C[C@@]1(O)CC[C@H]2[C@H](CC[C@@H]3[C@@H]2CC[C@@]2(C)[C@H]3[C@@H]3C[C@@H]3[C@@H]2C(=O)Cn2ccc(C#N)n2)C1 [Example 2, 1-(2-((2R,4aS,4bR,6aS,7S,7aS,8aR,8bR,8cR,10aR)-2-Hydroxy-2,6a-dimethyloctadecahydrocyclopropa[4,5]cyclopenta[1,2-a]phenanthren-7-yl)-2-oxoethyl)-1H-pyrazole-3-carbonitrile] | – | – | – | – | – | – | – | – | – | – | 902.9 ± 200.8 | 1736.0 ± 63.2 | 10 | 1.3 ± 0.3 | 0.1 ± 0.1 | 1739.8 ± 60.2 | 28.50 | very significantly different | –
C[C@@H]1C[C@H](C(=O)Cn2ccc(C#N)n2)[C@@]2(C)CC[C@H]3[C@@H](CC[C@@H]4C[C@](C)(O)CC[C@@H]43)[C@H]12 [Example 40, 1-(2-((3R,5R,8R,9R,10S,13S,14S,15R,17S)-3-Hydroxy-3,13,15-trimethylhexadecahydro-1H-cyclopenta[a]phenanthren-17-yl)-2-oxoethyl)-1H-pyrazole-3-carbonitrile] | – | – | – | – | – | – | – | – | – | – | 1308.1 ± 170.1 | 1800.0 ± 0.0 | 0 | 0.5 ± 0.2 | 0.0 ± 0.0 | 1800.0 ± 0.0 | 35.30 | very significantly different | 84.90
